Counter-ions that a name gives are not always drawn.
Molecular target: T1, human TRPM8 (Homo sapiens, UniProt Q7Z2W7)
T1 construct: expressed in transfected cells; host or cells: Chinese hamster ovary (CHO) cells, T-REx tetracycline-inducible expression system (Invitrogen); co-transfected with pcDNA3.1 aequorin
Test: Luminescence readout assay for measuring intracellular calcium (aequorin, CHO cells expressing human TRPM8; icilin, L-menthol or cold activation)
Format: cell-based
Conditions: CHO cells expressing human TRPM8, icilin activation (1 μM), aequorin luminescence; read-out: hTRPM8 IC50
Method in brief: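 Activation was by 1 μM icilin, 100 μM L-menthol (test compound 2.5 min ahead) or cold buffer below 10° C (compound 1 min ahead). Calcium rise measured as aequorin luminescence in CHO cells with tetracycline-inducible human TRPM8.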

T1 sequence (Q7Z2W7 whole entry): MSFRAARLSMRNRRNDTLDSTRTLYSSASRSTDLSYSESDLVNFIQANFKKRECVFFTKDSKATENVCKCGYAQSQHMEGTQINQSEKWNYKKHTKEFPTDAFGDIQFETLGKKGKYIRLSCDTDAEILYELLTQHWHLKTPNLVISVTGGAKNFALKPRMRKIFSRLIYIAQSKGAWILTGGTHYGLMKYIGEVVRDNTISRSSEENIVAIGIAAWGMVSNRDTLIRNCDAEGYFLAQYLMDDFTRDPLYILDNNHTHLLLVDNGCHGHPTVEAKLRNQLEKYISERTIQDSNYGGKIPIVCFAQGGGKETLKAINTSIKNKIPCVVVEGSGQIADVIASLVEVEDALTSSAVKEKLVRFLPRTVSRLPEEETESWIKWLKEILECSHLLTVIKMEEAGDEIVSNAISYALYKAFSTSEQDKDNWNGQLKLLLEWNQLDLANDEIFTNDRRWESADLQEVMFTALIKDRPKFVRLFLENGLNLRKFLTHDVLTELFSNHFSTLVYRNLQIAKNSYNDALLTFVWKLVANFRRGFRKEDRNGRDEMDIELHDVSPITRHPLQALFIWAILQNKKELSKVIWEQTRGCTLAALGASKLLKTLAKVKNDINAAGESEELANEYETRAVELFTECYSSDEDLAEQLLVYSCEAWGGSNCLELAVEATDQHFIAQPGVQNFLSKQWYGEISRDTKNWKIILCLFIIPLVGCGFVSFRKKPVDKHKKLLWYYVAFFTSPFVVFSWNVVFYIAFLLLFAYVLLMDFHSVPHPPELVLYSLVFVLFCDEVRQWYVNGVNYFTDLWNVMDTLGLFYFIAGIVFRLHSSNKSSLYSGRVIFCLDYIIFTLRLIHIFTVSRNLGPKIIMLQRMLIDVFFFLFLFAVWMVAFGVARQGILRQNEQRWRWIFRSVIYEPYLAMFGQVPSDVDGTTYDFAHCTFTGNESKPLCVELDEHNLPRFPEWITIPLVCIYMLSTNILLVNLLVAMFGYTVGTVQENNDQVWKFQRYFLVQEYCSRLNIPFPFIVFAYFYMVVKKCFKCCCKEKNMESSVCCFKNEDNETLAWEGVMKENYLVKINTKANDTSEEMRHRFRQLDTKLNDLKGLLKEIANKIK

| IC50 | Compound |
| --- | --- |
| 38 nM | O=C(NC1(c2ccc(OC(F)(F)F)cc2)CCOc2cccnc21)c1ccccc1 (stereo not drawn) [Example 9, N-(4-(4-(trifluoromethoxy)phenyl)-3,4-dihydro-2H-pyrano[3,2-b]pyridin-4-yl)benzamide] |
| 231 nM | O=C(N[C@]1(c2ccc(OC(F)(F)F)c(F)c2)CCOc2cccnc21)c1csc(C(=O)O)n1 [Example 329, (S)-4-((4-(3-fluoro-4-(trifluoro-methoxy)phenyl)-3,4-dihydro-2H-pyrano[3,2-b]pyridin-4-yl)carbamoyl) thiazole-2-carboxylic acid] |
| 25 nM | Cc1cc(C(=O)N[C@]2(c3ccc(OC(F)(F)F)c(F)c3)CCOc3cccnc32)ncc1C(=O)O [Example 333, (S)-6-((4-(3-fluoro-4-(trifluoromethoxy)phenyl)-3,4-dihydro-2H-pyrano[3,2-b]pyridin-4-yl)carbamoyl)-4-methylnicotinic acid] |
| 17 nM | O=C(Nc1ccc(F)nc1)N[C@]1(c2ccc(OC(F)(F)F)c(F)c2)CCOc2cccnc21 [Example 66, (S)-1-(4-(3-fluoro-4-(trifluoromethoxy)phenyl)-3,4-dihydro-2H-pyrano[3,2-b]pyridin-4-yl)-3-(6-fluoropyridin-3-yl)urea 2,2,2-trifluoroacetate] |
| 150 nM | O=C(N[C@]1(c2ccc(OC(F)(F)F)cc2)CCOc2cccnc21)c1cocn1 [Example 226, (S)-N-(4-(4-(trifluoromethoxy)phenyl)-3,4-dihydro-2H-pyrano[3,2-b]pyridin-4-yl)oxazole-4-carboxamide formate] |
| 88 nM | COc1cc(-c2ccc([C@@]3(NC(=O)c4ccc(F)cc4)CCOc4cccnc43)cc2)ccn1 [Example 146, (S)-4-fluoro-N-(4-(4-(2-methoxypyridin-4-yl)phenyl)-3,4-dihydro-2H-pyrano[3,2-b]pyridin-4-yl)benzamide] |
| 1010 nM | O=C(O)c1c[nH]c(C(=O)N[C@]2(c3ccc(OC(F)(F)F)c(F)c3)CCOc3cccnc32)c1 [Example 334, (S)-5-((4-(3-fluoro-4-(trifluoromethoxy)phenyl)-3,4-dihydro-2H-pyrano[3,2-b]pyridin-4-yl)carbamoyl)-1H-pyrrole-3-carboxylic acid] |
| 94.4 nM | O=C(N[C@]1(c2ccc(OC(F)(F)F)cc2)CCOc2cccnc21)C1Cc2ccccc2O1 (stereo partly drawn) [Example 246, N-((S)-4-(4-(trifluoromethoxy)phenyl)-3,4-dihydro-2H-pyrano[3,2-b]pyridin-4-yl)-2,3-dihydrobenzo furan-2-carboxamide formate] |
| 25 nM | O=C(N[C@]1(c2ccc(Cl)c(Cl)c2)CCOc2cccnc21)c1ccccc1 (single isomer, unassigned) [Example 3] |
| 12 nM | Cc1cc([C@@]2(NC(=O)c3ccc(=O)[nH]c3)CCOc3cccnc32)ccc1OC(F)(F)F [Example 199, (S)-N-(4-(3-methyl-4-(trifluoromethoxy)phenyl)-3,4-dihydro-2H-pyrano[3,2-b]pyridin-4-yl)-6-oxo-1,6-dihydropyridine-3-carboxamide] |
| 3160 nM | CNC(=O)c1ccc(-c2ccc([C@@]3(NC(=O)c4ccc(F)cc4)CCOc4cccnc43)cc2)cc1 [Example 138, (S)-4′-(4-(4-fluorobenzamido)-3,4-dihydro-2H-pyrano[3,2-b]pyridin-4-yl)-N-methyl-[1,1′-biphenyl]-4-carboxamide] |
| 44 nM | O=C(N[C@]1(c2ccc(Cl)c(Cl)c2)CCOc2cccnc21)c1ccc(=O)[nH]c1 [Example 194, (S)-N-(4-(3,4-dichlorophenyl)-3,4-dihydro-2H-pyrano[3,2-b]pyridin-4-yl)-6-oxo-1,6-dihydropyridine-3-carboxamide] |
| 23 nM | O=C(NC1(c2ccc(Cl)c(Cl)c2)CCOc2cccnc21)c1ccc2[nH]c(=O)oc2c1 (stereo not drawn) [Example 24, N-(4-(3,4-dichlorophenyl)-3,4-dihydro-2H-pyrano[3,2-b]pyridin-4-yl)-2-oxo-2,3-dihydrobenzo[d]oxazole-6-carboxamide] |
| 34.6 nM | O=C(N[C@]1(c2ccc(OC(F)(F)F)cc2)CCOc2cccnc21)c1cn2ccccc2n1 [Example 239, (S)-N-(4-(4-(trifluoromethoxy)phenyl)-3,4-dihydro-2H-pyrano[3,2-b]pyridin-4-yl)imidazo[1,2-a] pyridine-2-carboxamide formate] |
| 88 nM | O=C(N[C@]1(c2ccc(OC(F)(F)F)cc2)CCOc2cccnc21)C1=Cc2ccccc2OC1 [Example 259, (S)-N-(4-(4-(trifluoromethoxy)phenyl)-3,4-dihydro-2H-pyrano[3,2-b]pyridin-4-yl)-2H-chromene-3-carboxamide formate] |
| 20.1 nM | O=C(N[C@]1(c2ccc(OC(F)(F)F)cc2)CCOc2cccnc21)c1ccsc1 [Example 230, (S)-N-(4-(4-(trifluoromethoxy)phenyl)-3,4-dihydro-2H-pyrano[3,2-b]pyridin-4-yl)thiophene-3-carboxamide formate] |
| 176 nM | Nc1ccccc1-c1ccc([C@@]2(NC(=O)c3ccc(F)cc3)CCOc3cccnc32)cc1 [Example 143, (S)-N-(4-(2′-amino-[1,1′-biphenyl]-4-yl)-3,4-dihydro-2H-pyrano[3,2-b]pyridin-4-yl)-4-fluorobenzamide] |

| IC50 | Compound |
| --- | --- |
| 54 nM | O=C(N[C@]1(c2ccc(Cl)c(F)c2)CCOc2cccnc21)c1ccccc1 (single isomer, unassigned) [Example 15] |
| 386 nM | O=C(Nc1ccc(C(=O)O)cc1)N[C@]1(c2ccc(OC(F)(F)F)c(F)c2)CCOc2cccnc21 [Example 108, (S)-4-(3-(4-(3-fluoro-4-(trifluoromethoxy)phenyl)-3,4-dihydro-2H-pyrano[3,2-b]pyridin-4-yl)ureido)benzoic acid] |
| 1000 nM | COc1ccncc1-c1ccc([C@@]2(NC(=O)c3ccc(F)cc3)CCOc3cccnc32)cc1 [Example 130, (S)-4-fluoro-N-(4-(4-(4-methoxypyridin-3-yl)phenyl)-3,4-dihydro-2H-pyrano[3,2-b]pyridin-4-yl)benzamide] |
| 834 nM | COc1ccc(C(=O)N[C@]2(c3ccc(OC(F)(F)F)c(F)c3)CCOc3cccnc32)cc1C(=O)O [Example 315, (S)-5-((4-(3-fluoro-4-(trifluoromethoxy)phenyl)-3,4-dihydro-2H-pyrano[3,2-b]pyridin-4-yl)carbamoyl)-2-methoxybenzoic acid] |
| 89 nM | O=C(N[C@]1(c2ccc(F)c(C(F)(F)F)c2)CCOc2cccnc21)c1ccc(=O)[nH]c1 [Example 185, (S)-N-(4-(4-fluoro-3-(trifluoromethyl)phenyl)-3,4-dihydro-2H-pyrano[3,2-b]pyridin-4-yl)-6-oxo-1,6-dihydropyridine-3-carboxamide] |
| 9 nM | O=C(N[C@]1(c2ccc(OC(F)(F)F)cc2)CCOc2cccnc21)c1cnc2ccccc2n1 [Example 255, (S)-N-(4-(4-(trifluoromethoxy)phenyl)-3,4-dihydro-2H-pyrano[3,2-b]pyridin-4-yl)quinoxaline-2-carboxamide formate] |
| 27 nM | C[C@@H](O)Cn1cc(C(=O)N[C@]2(c3ccc(OC(F)(F)F)c(F)c3)CCOc3cccnc32)ccc1=O [Example 202, N-((S)-4-(3-fluoro-4-(trifluoromethoxy)phenyl)-3,4-dihydro-2H-pyrano[3,2-b]pyridin-4-yl)-1-((R)-2-hydroxypropyl)-6-oxo-1,6-dihydropyridine-3-carboxamide] |
| 143 nM | O=C(NC1(c2ccc(C(F)(F)F)cc2)CCCc2cccnc21)c1ccccc1 (stereo not drawn) [Example 29, N-(8-(4-(trifluoromethyl)phenyl)-5,6,7,8-tetrahydroquinolin-8-yl)benzamide] |
| 53 nM | CCOC(=O)c1nc(C(=O)N[C@]2(c3ccc(OC(F)(F)F)c(F)c3)CCOc3cccnc32)cs1 [Example 279, (S)-ethyl 4-((4-(3-fluoro-4-(trifluoromethoxy)phenyl)-3,4-dihydro-2H-pyrano[3,2-b]pyridin-4-yl)carbamoyl) thiazole-2-carboxylate] |
| 336 nM | COc1ncc(-c2ccc([C@@]3(NC(=O)c4ccc(F)cc4)CCOc4cccnc43)cc2)cn1 [Example 127, (S)-4-fluoro-N-(4-(4-(2-methoxypyrimidin-5-yl)phenyl)-3,4-dihydro-2H-pyrano[3,2-b]pyridin-4-yl)benzamide] |
| 46 nM | O=C(NC1(c2ccc(C(F)(F)F)nc2)CCOc2cccnc21)c1ccc2oc(=O)[nH]c2c1 (stereo not drawn) [Example 27, 2-oxo-N-(4-(6-(trifluoromethyl)pyridin-3-yl)-3,4-dihydro-2H-pyrano[3,2-b]pyridin-4-yl)-2,3-dihydrobenzo[d]oxazole-5-carboxamide] |
| 14 nM | COC(=O)c1c(C)cc(C(=O)N[C@]2(c3ccc(OC(F)(F)F)c(F)c3)CCOc3cccnc32)cc1C [Example 181, (S)-methyl 4-((4-(3-fluoro-4-(trifluoromethoxy)phenyl)-3,4-dihydro-2H-pyrano[3,2-b]pyridin-4-yl)carbamoyl)-2,6-dimethylbenzoate] |
| 336 nM | O=C(N[C@]1(c2ccc(-c3cccc(N4CCOCC4)c3)cc2)CCOc2cccnc21)c1ccc(F)cc1 [Example 142, (S)-4-fluoro-N-(4-(3′-morpholino-[1,1′-biphenyl]-4-yl)-3,4-dihydro-2H-pyrano[3,2-b]pyridin-4-yl)benzamide] |
| 585 nM | O=C(O)C1CCN(C(=O)N[C@]2(c3ccc(OC(F)(F)F)c(F)c3)CCOc3cccnc32)CC1 [Example 110] |
| 341 nM | O=C(N[C@]1(c2ccc(-c3cccnc3)cc2)CCOc2cccnc21)c1ccc(F)cc1 [Example 115, (S)-4-fluoro-N-(4-(4-(pyridin-3-yl)phenyl)-3,4-dihydro-2H-pyrano[3,2-b]pyridin-4-yl)benzamide] |
| 11 nM | O=C(N[C@]1(c2ccc(OC(F)(F)F)cc2)CCOc2cccnc21)c1cc2ccccn2n1 [Example 219, (S)-N-(4-(4-(trifluoromethoxy)phenyl)-3,4-dihydro-2H-pyrano[3,2-b]pyridin-4-yl) pyrazolo[1,5-a] pyridine-2-carboxainide formate] |
